Source: US20240024273A1, “TOPICAL ADMINISTRATION OF 2-(DIETHYLAMINO)ETHYL 2-(4-ISOBUTYLPHENYL)PROPRIONATE FOR TREATMENT OF DISEASES” (TECHFIELDS PHARMA CO., LTD., priority 2020, published 2024)

Test system: Mild to Moderate Osteoarthritis of the Knee
Assay: Phase 2 study: WOMAC joint stiffness subscale score
Type: in vivo, human
Conditions: for Change of WOMAC Joint Stiffness score from baseline (±SEM) / Percentage of improvement from baseline, WOMAC Joint Stiffness score: all patients taken as active
Description: This is a Phase 2, multicenter, randomized, double blind (within dose), placebo controlled, parallel group, proof of concept, and dose range finding study to evaluate the efficacy, safety, and PK of 2-(diethylamino)ethyl 2-(4-isobutylphenyl)propionate hydrochloride spray in adult subjects with clinically symptomatic mild to moderate OA of the knee. For subjects with bilateral knee pain, both knees will be treated, but the most symptomatic knee (i.e., the most painful knee as measured by the Western Ontario and McMaster University Osteoarthritis Index [WOMAC® 3.1] pain subscale score at Screening) will be designated as the target knee for efficacy analyses. For subjects with unilateral knee pain, only the symptomatic (target) knee will be treated.
After a Screening Period of up to 3 weeks and radiographic evaluation of the target knee joint space, a subject will be randomly assigned to 1 of 3 treatment groups in a 1:1:1 ratio with a 2:1 ratio of active:placebo within each treatment group (ie, 2 subjects to active treatment and 1 subject to placebo): • Group A: 8.75 mg 2-(diethylamino)ethyl 2-(4-isobutylphenyl)propionate/knee (2 sprays/knee, one spray to the medial surface and one spray to the lateral surface of the knee), twice daily (BID, approximately every 12 hours; n=50) or placebo (2 sprays/knee), BID (approximately every 12 hours; n=25) for a total of 4 sprays per knee per day; • Group B: 17.5 mg 2-(diethylamino)ethyl 2-(4-isobutylphenyl)propionate/knee (4 sprays/knee, one spray to the medial surface and one spray to the lateral surface of the knee, and one spray to front and one spray to the back of the knee), BID (approximately every 12 hours; n=50) or placebo (4 sprays/knee), BID (approximately every 12 hours; n=25) for a total of 8 sprays per knee per day; • Group C: 35 mg 2-(diethylamino)ethyl 2-(4-isobutylphenyl)propionate/knee (8 sprays/knee, each spray is to be applied to a different non-overlapping area around the knee, and the areas are to be uniformly distributed around the knee), BID (approximately every 12 hours; n=50) or placebo (8 sprays/knee), BID (approximately every 12 hours; n=25) for a total of 16 sprays per knee per day.
The VAS version of the WOMAC will be used for the Primary and Secondary Efficacy Endpoints. Efficacy endpoints will be assessed at Screening and Baseline (Day 1) and at the Week 2, Week 4, Week 8, and Week 12/EOS visits.
3.9.2. Secondary Efficacy Endpoints: • 1. Change from Baseline in the WOMAC (VAS) pain subscale score for the target knee at 2, 4, and 8 weeks of treatment; • 2. Change from Baseline in the WOMAC (VAS) stiffness subscale scores for the target knee and WOMAC (VAS) functional ability subscale scores at 2, 4, 8, and 12 weeks of treatment; • 3. Change from Baseline in the overall WOMAC (VAS) score at 2, 4, 8, and 12 weeks of treatment.
The Secondary Efficacy Endpoints, change from Baseline in the WOMAC subscale scores for pain, stiffness, and functional ability, and overall WOMAC score at 2, 4, 8, and 12 weeks of treatment, will be analyzed using the same methods as for the Primary Efficacy Endpoint.
To determine this, we assumed that all patients received 2-(diethylamino)ethyl 2-(4-isobutylphenyl)propionate, active drug treatment (i.e. all patients who received 2-(diethylamino)ethyl 2-(4-isobutylphenyl)propionate or placebo treatment for 12 weeks or mixed up treatment during the 12-week treatment, as 2-(diethylamino)ethyl 2-(4-isobutylphenyl)propionate-treated). Based on this assumption, that is, to treat this trial as an open-label study and that all patients received active treatment, we conducted efficacy analysis using top-line efficacy datasets prepared by CRO and the re-analysis results are presented in the following tables (Tables 29-47). […] (William G. Bensen, Justus J. Fiechtner, James 1. McMillen, et. al. Treatment of Osteoarthritis with Celecoxib. Mayo Clin Proc, November 1999. Vol 74, 1095-1105.)

[1] = 8.75 mg/knee (BID), Follow up (week 13, day 91)
[2] = 8.75 mg/knee (BID), Week 2 (day 14)
[3] = 8.75 mg/knee (BID), Week 4 (day 28)
[4] = 8.75 mg/knee (BID), Week 8 (day 56)
[5] = 8.75 mg/knee (BID), Week 12 (day 84)
[6] = 17.5 mg/knee (BID), Follow up (week 13, day 91)
[7] = 17.5 mg/knee (BID), Week 2 (day 14)
[8] = 17.5 mg/knee (BID), Week 4 (day 28)
[9] = 17.5 mg/knee (BID), Week 8 (day 56)
[10] = 17.5 mg/knee (BID), Week 12 (day 84)
[11] = 35 mg/knee (BID), Follow up (week 13, day 91)
[12] = 35 mg/knee (BID), Week 2 (day 14)
[13] = 35 mg/knee (BID), Week 4 (day 28)

CCN(CC)CCOC(=O)C(C)c1ccc(CC(C)C)cc1 (stereo not shown) [2-(diethylamino)ethyl 2-(4-isobutylphenyl)propionate]
Change of WOMAC Joint Stiffness score from baseline (±SEM), adjusted by […] of the Testing Drug Amount [1]: −39.1(±5.1) mm
Percentage of improvement from baseline, WOMAC Joint Stiffness score, adjusted by […] of the Testing Drug Amount [1]: −60.9%
Change of WOMAC Joint Stiffness score from baseline (±SEM) [1]: −22.8(±3.7) mm
Percentage of improvement from baseline, WOMAC Joint Stiffness score [1]: −35.5%
Change of WOMAC Joint Stiffness score from baseline (±SEM), adjusted by […] of the Testing Drug Amount [2]: −20.1(±4.3) mm
Percentage of improvement from baseline, WOMAC Joint Stiffness score, adjusted by […] of the Testing Drug Amount [2]: −31.2%
Change of WOMAC Joint Stiffness score from baseline (±SEM) [2]: −11.7(±2.5) mm
Percentage of improvement from baseline, WOMAC Joint Stiffness score [2]: −18.2%
Change of WOMAC Joint Stiffness score from baseline (±SEM), adjusted by […] of the Testing Drug Amount [3]: −31.7(±5.7) mm
Percentage of improvement from baseline, WOMAC Joint Stiffness score, adjusted by […] of the Testing Drug Amount [3]: −49.4%
Change of WOMAC Joint Stiffness score from baseline (±SEM) [3]: −18.5(±3.3) mm
Percentage of improvement from baseline, WOMAC Joint Stiffness score [3]: −28.8%
Change of WOMAC Joint Stiffness score from baseline (±SEM), adjusted by […] of the Testing Drug Amount [4]: −37.6(±6.0) mm
Percentage of improvement from baseline, WOMAC Joint Stiffness score, adjusted by […] of the Testing Drug Amount [4]: −58.5%
Change of WOMAC Joint Stiffness score from baseline (±SEM) [4]: −21.9(±3.5) mm
Percentage of improvement from baseline, WOMAC Joint Stiffness score [4]: −34.1%
Change of WOMAC Joint Stiffness score from baseline (±SEM), adjusted by […] of the Testing Drug Amount [5]: −38.4(±5.3) mm
Percentage of improvement from baseline, WOMAC Joint Stiffness score, adjusted by […] of the Testing Drug Amount [5]: −59.7%
Change of WOMAC Joint Stiffness score from baseline (±SEM) [5]: −22.4(±3.1) mm
Percentage of improvement from baseline, WOMAC Joint Stiffness score [5]: −34.8%
Change of WOMAC Joint Stiffness score from baseline (±SEM), adjusted by […] of the Testing Drug Amount [6]: −44.7(±6.2) mm
Percentage of improvement from baseline, WOMAC Joint Stiffness score, adjusted by […] of the Testing Drug Amount [6]: −65.9%
Change of WOMAC Joint Stiffness score from baseline (±SEM) [6]: −26.1(±3.6) mm
Percentage of improvement from baseline, WOMAC Joint Stiffness score [6]: −38.4%
Change of WOMAC Joint Stiffness score from baseline (±SEM), adjusted by […] of the Testing Drug Amount [7]: −32.2(±4.3) mm
Percentage of improvement from baseline, WOMAC Joint Stiffness score, adjusted by […] of the Testing Drug Amount [7]: −47.3%
Change of WOMAC Joint Stiffness score from baseline (±SEM) [7]: −18.8(±2.5) mm
Percentage of improvement from baseline, WOMAC Joint Stiffness score [7]: −27.6%
Change of WOMAC Joint Stiffness score from baseline (±SEM), adjusted by […] of the Testing Drug Amount [8]: −40.0(±5.1) mm
Percentage of improvement from baseline, WOMAC Joint Stiffness score, adjusted by […] of the Testing Drug Amount [8]: −58.8%
Change of WOMAC Joint Stiffness score from baseline (±SEM) [8]: −23.3(±3.0) mm
Percentage of improvement from baseline, WOMAC Joint Stiffness score [8]: −34.3%
Change of WOMAC Joint Stiffness score from baseline (±SEM), adjusted by […] of the Testing Drug Amount [9]: −45.5(±5.3) mm
Percentage of improvement from baseline, WOMAC Joint Stiffness score, adjusted by […] of the Testing Drug Amount [9]: −66.9%
Change of WOMAC Joint Stiffness score from baseline (±SEM) [9]: −26.5(±3.1) mm
Percentage of improvement from baseline, WOMAC Joint Stiffness score [9]: −39.0%
Change of WOMAC Joint Stiffness score from baseline (±SEM), adjusted by […] of the Testing Drug Amount [10]: −51.1(±5.8) mm
Percentage of improvement from baseline, WOMAC Joint Stiffness score, adjusted by […] of the Testing Drug Amount [10]: −75.1%
Change of WOMAC Joint Stiffness score from baseline (±SEM) [10]: −29.8(±3.4) mm
Percentage of improvement from baseline, WOMAC Joint Stiffness score [10]: −43.8%
Change of WOMAC Joint Stiffness score from baseline (±SEM), adjusted by […] of the Testing Drug Amount [11]: −41.9(±5.3) mm
Percentage of improvement from baseline, WOMAC Joint Stiffness score, adjusted by […] of the Testing Drug Amount [11]: −67.4%
Change of WOMAC Joint Stiffness score from baseline (±SEM) [11]: −24.4(±3.1) mm
Percentage of improvement from baseline, WOMAC Joint Stiffness score [11]: −39.3%
Change of WOMAC Joint Stiffness score from baseline (±SEM), adjusted by […] of the Testing Drug Amount [12]: −19.3(±4.6) mm
Percentage of improvement from baseline, WOMAC Joint Stiffness score, adjusted by […] of the Testing Drug Amount [12]: −31.2%
Change of WOMAC Joint Stiffness score from baseline (±SEM) [12]: −11.3(±2.7) mm
Percentage of improvement from baseline, WOMAC Joint Stiffness score [12]: −18.2%
Change of WOMAC Joint Stiffness score from baseline (±SEM), adjusted by […] of the Testing Drug Amount [13]: −30.2(±5.0) mm
Percentage of improvement from baseline, WOMAC Joint Stiffness score, adjusted by […] of the Testing Drug Amount [13]: −48.5%
Change of WOMAC Joint Stiffness score from baseline (±SEM) [13]: −17.6(±2.9) mm
Percentage of improvement from baseline, WOMAC Joint Stiffness score [13]: −28.3%
